Results on 22 compounds are retold here after PubChem BioAssay AID192 (DTP/NCI, 2004).

Several values for one entry are separate records, joined by “and”; a condition that tells them apart may be missing. Identical values can stand only once. Toxic doses and inconclusive results are not listed.

The subject of this experiment is BDF1 mice, B16 melanoma ip, median survival T/C. In words: NCI In Vivo Anticancer Drug Screen. Data for tumor model B16 Melanoma (intraperitoneal) in B6D2F1 (BDF1) mice. The following applies: endpoint: median survival time, higher = longer survival. The essentials: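 Antitumor activity is assessed in mice bearing a transplanted tumor, with survival or tumor size compared against vehicle-dosed controls and expressed as T/C.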

[1] abbreviates: dose: 6.25 mg/kg/injection, schedule: Q01DX009 (ip), vehicle: saline.
Setting [2] is: dose: 12.5 mg/kg/injection, schedule: Q01DX009 (ip), vehicle: saline.
[3] abbreviates: dose: 25.0 mg/kg/injection, schedule: Q01DX009 (ip), vehicle: saline.
The mark [4] stands for this setting: dose: 50.0 mg/kg/injection, schedule: Q01DX009 (ip), vehicle: saline.
Where [5] appears, read: dose: 100.0 mg/kg/injection, schedule: Q01DX009 (ip), vehicle: saline.
Where [6] appears, read: dose: 200.0 mg/kg/injection, schedule: Q01DX009 (ip), vehicle: Klucel (hydroxypropylcellulose) (HPC).
Setting [7] is: dose: 12.5 mg/kg/injection, schedule: Q01DX009 (ip), vehicle: Klucel (hydroxypropylcellulose) (HPC).
[8] abbreviates: dose: 12.5 mg/kg/injection, schedule: Q01DX009 (ip), vehicle: saline with Tween-80.
[9] abbreviates: dose: 25.0 mg/kg/injection, schedule: Q01DX009 (ip), vehicle: Klucel (hydroxypropylcellulose) (HPC).
The mark [10] stands for this setting: dose: 25.0 mg/kg/injection, schedule: Q01DX009 (ip), vehicle: saline with Tween-80.
[11] abbreviates: dose: 50.0 mg/kg/injection, schedule: Q01DX009 (ip), vehicle: Klucel (hydroxypropylcellulose) (HPC).
Where [12] appears, read: dose: 50.0 mg/kg/injection, schedule: Q01DX009 (ip), vehicle: saline with Tween-80.
[13] abbreviates: dose: 100.0 mg/kg/injection, schedule: Q01DX009 (ip), vehicle: Klucel (hydroxypropylcellulose) (HPC).
The mark [14] stands for this setting: dose: 400.0 mg/kg/injection, schedule: Q01DX009 (ip), vehicle: Klucel (hydroxypropylcellulose) (HPC).
The mark [15] stands for this setting: dose: 3.12 mg/kg/injection, schedule: Q01DX009 (ip), vehicle: Klucel (hydroxypropylcellulose) (HPC).
Setting [16] is: dose: 6.25 mg/kg/injection, schedule: Q01DX009 (ip), vehicle: Klucel (hydroxypropylcellulose) (HPC).
[17] abbreviates: dose: 100.0 mg/kg/injection, schedule: Q01DX009 (ip), vehicle: saline with Tween-80.
Where [18] appears, read: dose: 200.0 mg/kg/injection, schedule: Q01DX009 (ip), vehicle: saline with Tween-80.

Consider `Nc1nc2c(ncn2C2OC(CO)C(O)C2N)c(=O)[nH]1` (configuration not stated), for which the T/C reads like this: (dose: 3.12 mg/kg/injection, schedule: Q01DX009 (ip), vehicle: saline) 95 % of control and 110 % of control; under setting [1], 101 % of control and 102 % of control and 104 % of control; under setting [2], 106 % of control and 107 % of control and 110 % of control; (dose: 25.0 mg/kg/injection, schedule: Q01DX005 (ip), vehicle: saline with Tween-80) 104 % of control; under setting [3], 89 % of control and 101 % of control and 112 % of control; (dose: 35.0 mg/kg/injection, schedule: Q01DX005 (ip), vehicle: saline with Tween-80) 104 % of control. The T/C is 89 % of control and 101 % of control under setting [4]; 95 % of control (dose: 55.0 mg/kg/injection, schedule: Q01DX005 (ip), vehicle: saline with Tween-80); 104 % of control (dose: 80.0 mg/kg/injection, schedule: Q01DX005 (ip), vehicle: saline with Tween-80); 96 % of control under setting [5].

As to `NC(CSCCc1ccccn1)C(=O)O` (configuration not stated), the T/C is, setting by setting: under setting [3], 100 % of control; under setting [4], 100 % of control; under setting [5], 110 % of control; (dose: 100.0 mg/kg/injection, schedule: Q04DX003 (ip), vehicle: saline) 104 % of control; (dose: 200.0 mg/kg/injection, schedule: Q04DX003 (ip), vehicle: saline) 104 % of control; (dose: 400.0 mg/kg/injection, schedule: Q04DX003 (ip), vehicle: saline) 104 % of control.

`CN(C)c1nc(N)nc(Nc2ccc(Br)cc2)c1N=O`: the T/C under setting [6] was 118 % of control.

With `COC(OC(CO)C(O)S(=O)(=O)O)C(O)S(=O)(=O)O` (configuration not stated), the T/C under setting [2] was 104 % of control, the T/C under setting [3] was 107 % of control, the T/C under setting [4] was 111 % of control and the T/C under setting [5] is 119 % of control.

For the compound `CSCCC(NC(=O)c1ccccc1)C(=O)O` (configuration not stated), the T/C under setting [7] was 89 % of control; the T/C under setting [8] is 104 % of control; the T/C under setting [9] is 100 % of control; the T/C under setting [10] was 97 % of control; the T/C under setting [11] is 88 % of control; the T/C under setting [12] is 99 % of control. Further, the T/C under setting [13] is 88 % of control.

Take `Cc1ccc(N=P(c2ccccc2)(c2ccccc2)c2ccccc2)cc1`: the T/C is, setting by setting: under setting [13], 94 % of control; under setting [6], 108 % of control; under setting [14], 91 % of control.

In the case of `COC(=O)Nc1cn2cc(C(=O)c3cccs3)ccc2n1`, the T/C is 93 % of control (dose: 1.56 mg/kg/injection, schedule: Q01DX009 (ip), vehicle: Klucel (hydroxypropylcellulose) (HPC)); 98 % of control under setting [15]; 104 % of control under setting [16]; 113 % of control under setting [7]; 123 % of control under setting [9].

`CNC(Cc1ccccc1)c1ccc(OC)c(OC)c1` (configuration not stated): the T/C was 100 % of control under setting [13], 100 % of control under setting [6] and 103 % of control under setting [14].

For `Nc1nc2c(ncn2C2OC(CO)C(O)C2O)c(=O)[nH]1` (configuration not stated), the T/C is, setting by setting: (dose: 25.0 mg/kg/injection, schedule: Q01DX009 (ip), vehicle: suspension in saline) 101 % of control; (dose: 50.0 mg/kg/injection, schedule: Q01DX009 (ip), vehicle: suspension in saline) 110 % of control; (dose: 100.0 mg/kg/injection, schedule: Q01DX009 (ip), vehicle: suspension in saline) 113 % of control; (dose: 400.0 mg/kg/injection, schedule: Q01DX009 (ip), vehicle: suspension in saline) 116 % of control.

Consider `C=C1CC2(OC1=O)C(=O)N(C)c1ccc(I)cc12` (configuration not stated), for which the T/C is 100 % of control and 104 % of control under setting [1]; 101 % of control and 112 % of control under setting [2]; 95 % of control and 104 % of control under setting [3]; 110 % of control under setting [4].

With `O=C(CC(O)(C(F)(F)F)C(F)(F)F)c1cccc2ccccc12`, the T/C is, setting by setting: (dose: 100.0 mg/kg/injection, schedule: Q04DX003 (ip), vehicle: Klucel (hydroxypropylcellulose) (HPC)) 90 % of control; (dose: 200.0 mg/kg/injection, schedule: Q04DX003 (ip), vehicle: Klucel (hydroxypropylcellulose) (HPC)) 95 % of control; (dose: 400.0 mg/kg/injection, schedule: Q04DX003 (ip), vehicle: Klucel (hydroxypropylcellulose) (HPC)) 102 % of control.

Turning to `COc1ccc(C(N)=O)cc1N=NN(C)C`, the T/C under setting [15] is 111 % of control and 113 % of control; the T/C under setting [16] was 109 % of control and 110 % of control; the T/C under setting [7] is 110 % of control and 111 % of control; the T/C under setting [9] was 115 % of control and 123 % of control; the T/C under setting [11] is 117 % of control.

As to `NC(=O)c1nc2n(c1N)CCC2`, the T/C runs as follows: (dose: 100.0 mg/kg/injection, schedule: Q04DX003 (ip), vehicle: saline with Tween-80) 102 % of control; (dose: 200.0 mg/kg/injection, schedule: Q04DX003 (ip), vehicle: saline with Tween-80) 105 % of control; (dose: 400.0 mg/kg/injection, schedule: Q04DX003 (ip), vehicle: saline with Tween-80) 94 % of control.

For the compound `Nc1nc2c(ncn2C2OC(CO)C(O)C2O)c(=O)[nH]1.Nc1nc2c(ncn2C2OC(CO)C(O)C2O)c(=O)[nH]1.[NH2-].[NH2-].[Pt+2]` (configuration not stated), the T/C reads like this: (dose: 6.25 mg/kg/injection, schedule: Q01DX009 (ip), vehicle: water) 100 % of control and 108 % of control; (dose: 12.5 mg/kg/injection, schedule: Q01DX009 (ip), vehicle: water) 98 % of control and 114 % of control; (dose: 25.0 mg/kg/injection, schedule: Q01DX009 (ip), vehicle: water) 117 % of control; (dose: 50.0 mg/kg/injection, schedule: Q01DX009 (ip), vehicle: water) 109 % of control; (dose: 100.0 mg/kg/injection, schedule: Q01DX009 (ip), vehicle: water) 160 % of control; (dose: 200.0 mg/kg/injection, schedule: Q01DX009 (ip), vehicle: water) 151 % of control and 170 % of control.

Regarding `C=C1C(=O)OC2C1CC1OC2C(C)CCC/C(C)=C\CCC1(C)O` (configuration not stated), the T/C reads like this: under setting [8], 97 % of control; under setting [10], 101 % of control; under setting [12], 100 % of control; under setting [17], 104 % of control.

For the compound `CC1=CCC(C(C)C)C=C1` (configuration not stated), the T/C is 92 % of control under setting [9], 94 % of control under setting [11], 94 % of control under setting [13] and 89 % of control under setting [6].

`COc1c(Cl)cc2c(c1OC)N(C)C1N3C(=O)C4(C)SSC3(C(=O)N4C)C(O)C21O` (configuration not stated): the T/C is, setting by setting: (dose: 0.12 mg/kg/injection, schedule: Q01DX009 (ip), vehicle: Klucel (hydroxypropylcellulose) (HPC)) 103 % of control; (dose: 0.25 mg/kg/injection, schedule: Q01DX009 (ip), vehicle: Klucel (hydroxypropylcellulose) (HPC)) 106 % of control.

`CC1(C)SC(C(NC(=O)Cc2ccccc2)C(=O)O)NC1C(=O)O` (configuration not stated): the T/C reads like this: under setting [17], 105 % of control; under setting [18], 102 % of control.

`CCC(C)C(C(=O)OCCN(CC)CC)c1ccccc1` (configuration not stated): the T/C is 90 % of control under setting [7]; 96 % of control under setting [9]; 90 % of control and 93 % of control under setting [11].

Regarding `CCC(=O)[O][Bi]([c]1ccccc1)[c]1ccccc1`, the T/C is 90 % of control (dose: 3.0 mg/kg/injection, schedule: Q01DX009 (ip), vehicle: Klucel (hydroxypropylcellulose) (HPC)); 99 % of control (dose: 6.0 mg/kg/injection, schedule: Q01DX009 (ip), vehicle: Klucel (hydroxypropylcellulose) (HPC)); 94 % of control (dose: 12.0 mg/kg/injection, schedule: Q01DX009 (ip), vehicle: Klucel (hydroxypropylcellulose) (HPC)); 91 % of control (dose: 24.0 mg/kg/injection, schedule: Q01DX009 (ip), vehicle: Klucel (hydroxypropylcellulose) (HPC)).

As to `Cc1ccc([N+](=O)[O-])c2ccccc12`, the T/C by setting is: under setting [17], 97 % of control; under setting [18], 88 % of control.

With `O=C1C=C(N2CC2)c2ccccc2C1=O`, the T/C was 105 % of control (dose: 5.0 mg/kg/injection, schedule: Q01DX009 (ip), vehicle: saline with Tween-80) and 100 % of control (dose: 10.0 mg/kg/injection, schedule: Q01DX009 (ip), vehicle: saline with Tween-80).
